What was measured:
[1] = molecular target: Carboxylic ester hydrolase (Equus caballus, UniProt Q9N1N9); assay: Enzyme Inhibition Assay; conditions: 30 °C
Procedure: (§1) AChE and BChE inhibitory activities were measured in vitro by a modified spectrophotometric method. all the inhibition studies were performed using a Spectra Max microplate spectrophotometer from Molecular Devices, CA, USA.

Acetylcholinesterase = Acetylcholinesterase (Tetronarce californica, UniProt P04058); assay: Enzyme Inhibition Assay; conditions: 30 °C
Chain of Acetylcholinesterase (P04058 whole entry): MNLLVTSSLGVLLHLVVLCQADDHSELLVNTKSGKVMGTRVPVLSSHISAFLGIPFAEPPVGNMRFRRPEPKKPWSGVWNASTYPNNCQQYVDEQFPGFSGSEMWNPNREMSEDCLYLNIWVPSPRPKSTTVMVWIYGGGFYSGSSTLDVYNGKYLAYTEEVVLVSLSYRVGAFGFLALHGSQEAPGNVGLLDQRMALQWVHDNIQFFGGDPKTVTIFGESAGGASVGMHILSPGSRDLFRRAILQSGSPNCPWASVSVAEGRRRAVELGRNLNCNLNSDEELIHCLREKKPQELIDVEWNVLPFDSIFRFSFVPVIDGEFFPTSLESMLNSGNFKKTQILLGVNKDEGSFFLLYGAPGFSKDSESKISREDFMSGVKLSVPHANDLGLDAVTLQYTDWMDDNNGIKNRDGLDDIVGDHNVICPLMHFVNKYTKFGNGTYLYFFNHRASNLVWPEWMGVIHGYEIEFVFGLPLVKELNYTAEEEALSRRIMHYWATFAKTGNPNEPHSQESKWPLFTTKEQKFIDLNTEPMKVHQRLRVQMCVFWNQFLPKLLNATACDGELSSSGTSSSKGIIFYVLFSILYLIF
Procedure: as §1

Chain of Carboxylic ester hydrolase (Q9N1N9 whole entry): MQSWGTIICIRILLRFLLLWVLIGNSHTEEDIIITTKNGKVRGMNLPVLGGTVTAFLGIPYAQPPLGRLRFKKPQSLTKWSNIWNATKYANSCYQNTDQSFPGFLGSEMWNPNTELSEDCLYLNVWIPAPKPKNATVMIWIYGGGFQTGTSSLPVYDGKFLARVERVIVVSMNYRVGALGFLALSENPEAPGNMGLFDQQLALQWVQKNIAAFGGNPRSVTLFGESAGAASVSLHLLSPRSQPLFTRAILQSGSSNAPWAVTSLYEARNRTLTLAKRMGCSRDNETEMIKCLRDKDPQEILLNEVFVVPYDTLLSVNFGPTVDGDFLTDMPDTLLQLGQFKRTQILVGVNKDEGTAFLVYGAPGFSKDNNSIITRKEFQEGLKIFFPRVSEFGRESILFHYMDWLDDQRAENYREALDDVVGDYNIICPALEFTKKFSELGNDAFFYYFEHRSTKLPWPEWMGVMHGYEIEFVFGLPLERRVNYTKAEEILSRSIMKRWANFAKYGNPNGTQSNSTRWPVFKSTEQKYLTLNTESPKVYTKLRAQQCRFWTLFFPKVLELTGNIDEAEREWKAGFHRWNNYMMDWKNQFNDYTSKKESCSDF

Row | Structure (SMILES) | Ki [1] [µM] | Ki (Acetylcholinesterase) [µM]
1 | COC(C)(C)[C@H]1Cc2c(n(C)c3ccccc3c2=O)O1 [Methyl isoplatydesmine, 4] | 19 | 30
2 | Cn1c2c(c(=O)c3ccccc31)C[C@@H](O)C(C)(C)O2 [Ribalinine, 3] | 70 | 30
3 | COc1ccc2c3c1O[C@H]1C[C@@H](O)C=C[C@@]31CCN(C)C2 [galantamine] | 32 | –

Source: BindingDB's records for doi:10.1080/14756360600889708 (University of Karachi, 2006)
